Assay results from ChEMBL document CHEMBL1145559, “Design, synthesis and in vitro antiprotozoal activity of benzimidazole-pentamidine hybrids” (Bioorg Med Chem Lett, 2008).
Activity calls are given as the source filed them. The calls are words filed in the database; no cut-off is given here.

What was measured:
Trichomonas vaginalis = test: Antiprotozoal activity against Trichomonas vaginalis; type: functional, organism-based
Giardia intestinalis = test: Antiprotozoal activity against Giardia lamblia; type: functional, organism-based; conditions: Giardia duodenalis
Entamoeba histolytica = test: Antiprotozoal activity against Entamoeba histolytica; type: functional, organism-based
Leishmania mexicana = test: Antiprotozoal activity against Leishmania mexicana; type: functional, organism-based
Plasmodium berghei [1] = test: Antiprotozoal activity against Plasmodium berghei; type: functional, organism-based
Plasmodium berghei [2] = test: Antiprotozoal activity against Plasmodium berghei at 100 uM; type: functional
Plasmodium berghei [3] = test: Antiprotozoal activity as cell damage against Plasmodium berghei; type: functional, organism-based

| SMILES | IC50 (Trichomonas vaginalis) [µM] | IC50 (Giardia intestinalis) [µM] | IC50 (Entamoeba histolytica) [µM] | IC50 (Leishmania mexicana) [µM] | IC50 (Plasmodium berghei [1]) [µM] | inhibition at 100 µM (Plasmodium berghei [2]) [%] | Activity (Plasmodium berghei [2]) | Activity (Plasmodium berghei [3]) |
| --- | --- | --- | --- | --- | --- | --- | --- | --- |
| O=[N+]([O-])c1ccc2[nH]c(-c3ccc(OCCCCCOc4ccc(-c5nc6cc([N+](=O)[O-])ccc6[nH]5)cc4)cc3)nc2c1 | 3.58 | 7.41 | 10.2 | > 50 | 100 | 46 |  |  |
| FC(F)(F)c1ccc2[nH]c(-c3ccc(OCCCCCOc4ccc(-c5nc6cc(C(F)(F)F)ccc6[nH]5)cc4)cc3)nc2c1 | 4.96 | 9.6 | 7.29 | > 50 | 6.53 |  |  |  |
| c1ccc2[nH]c(-c3ccc(OCCCCCOc4ccc(-c5nc6ccccc6[nH]5)cc4)cc3)nc2c1 | 3.18 | 1.84 | 0.436 | 1.06 | 100 | 37 |  |  |
| Cc1ncc([N+](=O)[O-])n1CCO [METRONIDAZOLE] | 0.286 | 1.29 | 0.771 |  |  |  |  |  |
| COc1ccc2[nH]c(-c3ccc(OCCCCCOc4ccc(-c5nc6cc(OC)ccc6[nH]5)cc4)cc3)nc2c1 | 0.164 | 0.435 | 0.109 | 0.712 | 34.6 |  |  |  |
| N=C(N)c1ccc(OCCCCCOc2ccc(C(=N)N)cc2)cc1 [PENTAMIDINE] | 3.81 | 4.08 | 11.8 | 9.57 |  |  |  | Active |

The next lines start with results.

| IC50 (Trichomonas vaginalis) [µM] | IC50 (Giardia intestinalis) [µM] | IC50 (Entamoeba histolytica) [µM] | IC50 (Leishmania mexicana) [µM] | IC50 (Plasmodium berghei [1]) [µM] | SMILES | inhibition at 100 µM (Plasmodium berghei [2]) [%] | Activity (Plasmodium berghei [2]) | Activity (Plasmodium berghei [3]) |
| --- | --- | --- | --- | --- | --- | --- | --- | --- |
|  |  |  | > 50 | 63.1 | COc1cc(-c2nc3cc(C(F)(F)F)ccc3[nH]2)ccc1OCCCCCOc1ccc(-c2nc3cc(C(F)(F)F)ccc3[nH]2)cc1OC |  |  |  |
| 6.29 | 5.19 | 0.284 | > 50 | 24 | COc1ccc2[nH]c(-c3ccc(OCCCCCOc4ccc(-c5nc6cc(OC)ccc6[nH]5)cc4OC)c(OC)c3)nc2c1 |  |  |  |
| 0.794 | 3.4 | 12.1 | 16.8 | 25.9 | COc1cc(-c2nc3cc([N+](=O)[O-])ccc3[nH]2)ccc1OCCCCCOc1ccc(-c2nc3cc([N+](=O)[O-])ccc3[nH]2)cc1OC |  |  |  |
| 4.16 | 4.89 | 0.153 | 0.368 | 100 | Cc1ccc2[nH]c(-c3ccc(OCCCCCOc4ccc(-c5nc6cc(C)ccc6[nH]5)cc4)cc3)nc2c1 | 43 |  |  |
| 1.02 | 0.372 | 4.5 | > 50 |  | COc1cc(-c2nc3cc(C)ccc3[nH]2)ccc1OCCCCCOc1ccc(-c2nc3cc(C)ccc3[nH]2)cc1OC |  | inactive |  |
| 6.15 | 12.7 | 5.19 | > 50 | 166 | COc1cc(-c2nc3ccccc3[nH]2)ccc1OCCCCCOc1ccc(-c2nc3ccccc3[nH]2)cc1OC |  |  |  |
